Experimental data taken from PubChem BioAssay AID2060604 (Molecular Pharmacology Branch, DTP, NCI, 2025).

System: 379773-124-R-J2-PDC complex spheroids, viability % test/control
Test: Anticancer human tumor 379773-124-R-J2-PDC patient-derived endometrial carcinoma cell line growth inhibition [CLK]
Conditions: for IC50: curve of first compound; for viability, T/C: stronger effect = lower value
From the text: A high-throughput screen of multi-cell type tumor spheroids was designed to identify active combinations of […] and targeted small molecules. Complex spheroids include a stromal component modeled by human endothelial cells (HUVEC) and fibroblasts modeled by human mesenchymal stem cells (MSCs). The concentration ranges selected for each drug and investigational agent were based upon clinically achievable concentrations if the clinical Cmax of the agent was known.
Compounds. The drugs and investigational agents: cirtuvivint (SM08502; NSC835563), CC-671 (NSC850746), vemurafenib (NSC761431), tapotoclax (NSC804041), sotorasib (NSC818433), adagrasib (NSC831453), MRTX-1133 (NSC836407), BAY2416964 (NSC825713), copanlisib (NSC816437), inavolisib (NSC800729), abemaciclib (NSC768073), osimertinib (NSC779217), entinostat (NSC756642), eltanexor (KPT-8602, NSC794443), venetoclax (NSC766270), ceralasertib (NSC777638), bortezomib (NSC756655), olaparib (NSC753686), talazoparib (NSC767125), alisertib (NSC759677), peposertib (NSC802822), gemcitabine (NSC613327), 5-fluorouracil (NSC19893), SN-38 (NSC673596), oxaliplatin (NSC266046), paclitaxel (NSC125973), and doxorubicin (NSC123127), were obtained from the National Cancer Institute (NCI) Developmental Therapeutics Program Chemical Repository. The FDA-approved anticancer drug set is available from the Developmental Therapeutics Program at https://dtp.cancer.gov/organization/dscb/obtaining/available plates.htm. […] The stock solutions were prepared in dimethyl sulfoxide (DMSO, Sigma-Aldrich, St. Louis, MO, cat. D2650), except for the platinum complexes which were prepared in saline (Quality Biological, Gaithersburg, MD, cat. 114-055-101), at 800-fold the tested concentration and stored at -70 degrees C prior to their use. All drugs and investigational agents were tested over a range starting from a high concentration at or near the clinical Cmax and decreasing in half-log increments. If the clinical Cmax for an agent had not been determined, the highest concentration tested was 10 microM.
Cell Culture. All cells were maintained in an incubator at 37 degrees C and 5% CO2 with 95% humidity. The PDC lines were cultured according to standard operating procedures established by the NCI PDMR. Briefly, all PDCs were thawed and cultured in Matrigel-coated flasks prepared with a working solution of 1X Ham's F-12 nutrient mix, without supplementation (Invitrogen, Waltham, MA, cat. 11765054), 100 U/mL penicillin-streptomycin (Invitrogen, cat. 15140122), and 2.5% Matrigel (Corning Inc., Corning, NY, cat. 354248) for the first three passages. The 947758-054-R-J2-PDC line was cultured in 6B/Colon 1A media, which includes advanced DMEM/F-12 (Thermo Fisher Scientific, cat. 12634028), 10 mM HEPES (Thermo Fisher Scientific, cat. 15630080), 1X GlutaMAX supplement (Thermo Fisher Scientific, cat. 35050061), 0.1 mg/mL primocin (InvivoGen, cat. ant-pm-2), 10% defined fetal bovine serum, heat inactivated (HyClone Laboratories Inc., cat. SH30070.03HI), 1.25 mM N-Acetyl-L-cysteine (Sigma-Aldrich, cat. A9165), 10 mM nicotinamide (Sigma-Aldrich, cat. N0636), 1X B-27 supplement (Thermo Fisher Scientific, cat. 17504044), 1X N-2 supplement (Thermo Fisher Scientific, cat. 17502048), and 10 microM Y-27632 dihydrochloride (Tocris Bioscience, cat. 1254). The 876862-298-R-J1-PDC was cultured in 6E media, which includes all 6B/Colon 1A media components plus 50% L-WRN conditioned media (ATCC, cat. CRL-3276), 50 ng/mL recombinant human EGF recombinant protein (hEGF; Thermo Fisher Scientific, cat. PHG0311), 10 ng/mL recombinant human fibroblast growth factor 10 (hGFG-10; PeproTech, cat. 100-26), 1 ng/mL recombinant human fibroblast growth factor 2 (hFGF-2; PeproTech, cat. 100-18B), and 1 µM prostaglandin E2 (PGE2; Tocris, cat. 2296). The 227483-062-R1-J1-PDC line was cultured in Panc media, containing all 6E components except hFGF-2, with the addition of 500 nM SB-431542 (Selleckchem, cat. S1067) and 10 nM gastrin (Tocris, cat. 3006). […]

[1] = second compound 0.0316 µM, first compound 0.0316 µM
[2] = second compound 0.0316 µM, first compound 0.1 µM
[3] = second compound 0.0316 µM, first compound 0.316 µM
[4] = second compound 0.0316 µM, first compound 1 µM
[5] = second compound 0.0316 µM, first compound 3.16 µM
[6] = second compound 0.0316 µM, first compound 10 µM
[7] = second compound 0.1 µM, first compound 0.0316 µM
[8] = second compound 0.1 µM, first compound 0.1 µM
[9] = second compound 0.1 µM, first compound 0.316 µM
[10] = second compound 0.1 µM, first compound 1 µM
[11] = second compound 0.1 µM, first compound 3.16 µM
[12] = second compound 0.1 µM, first compound 10 µM
[13] = second compound 0.316 µM, first compound 0.0316 µM
[14] = second compound 0.316 µM, first compound 0.1 µM
[15] = second compound 0.316 µM, first compound 0.316 µM
[16] = second compound 0.316 µM, first compound 1 µM
[17] = second compound 0.316 µM, first compound 3.16 µM
[18] = second compound 0.316 µM, first compound 10 µM
[19] = second compound 1 µM, first compound 0.0316 µM
[20] = second compound 1 µM, first compound 0.1 µM
[21] = second compound 1 µM, first compound 0.316 µM
[22] = second compound 1 µM, first compound 1 µM
[23] = second compound 1 µM, first compound 3.16 µM
[24] = second compound 1 µM, first compound 10 µM
[25] = second compound 3.16 µM, first compound 0.0316 µM
[26] = second compound 3.16 µM, first compound 0.1 µM
[27] = second compound 3.16 µM, first compound 0.316 µM
[28] = second compound 3.16 µM, first compound 1 µM
[29] = second compound 3.16 µM, first compound 3.16 µM
[30] = second compound 3.16 µM, first compound 10 µM
[31] = second compound 10 µM, first compound 0.0316 µM
[32] = second compound 10 µM, first compound 0.1 µM
[33] = second compound 10 µM, first compound 0.316 µM
[34] = second compound 10 µM, first compound 1 µM
[35] = second compound 10 µM, first compound 3.16 µM
[36] = second compound 10 µM, first compound 10 µM
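Further: compound exposure lasted seven days before the viability readout.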
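Wherever viability, T/C is given: 100% = DMSO vehicle control wells.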

## CCCS(=O)(=O)Nc1ccc(F)c(C(=O)c2c[nH]c3ncc(-c4ccc(Cl)cc4)cc23)c1F + CN1CCN(c2cc(C(=O)Nc3cc4cc(-c5cnn(C)c5)ccc4cn3)ccn2)CC1
Second compound 0.0316 µM
  IC50: > 10000 nM
Second compound 0.1 µM
  IC50: > 10000 nM
Second compound 0.316 µM
  IC50: < 31.6 nM
Second compound 1 µM
  IC50: < 31.6 nM
Second compound 3.16 µM
  IC50: < 31.6 nM
Second compound 10 µM
  IC50: < 31.6 nM
[1]
  viability, T/C: 80.5%
[2]
  viability, T/C: 86.1%
[3]
  viability, T/C: 94.8%
[4]
  viability, T/C: 90.1%
[5]
  viability, T/C: 82.4%
[6]
  viability, T/C: 58.7%
[7]
  viability, T/C: 83.6%
[8]
  viability, T/C: 65.8%
[9]
  viability, T/C: 75.8%
[10]
  viability, T/C: 70.2%
[11]
  viability, T/C: 68.9%
[12]
  viability, T/C: 54.8%
[13]
  viability, T/C: 26.6%
[14]
  viability, T/C: 27.3%
[15]
  viability, T/C: 30.2%
[16]
  viability, T/C: 27.2%
[17]
  viability, T/C: 29.8%
[18]
  viability, T/C: 18.3%
[19]
  viability, T/C: 0.16%
[20]
  viability, T/C: 0.29%
[21]
  viability, T/C: 0.14%
[22]
  viability, T/C: 0.13%
[23]
  viability, T/C: 1.03%
[24]
  viability, T/C: 0.09%
[25]
  viability, T/C: 0.1%
[26]
  viability, T/C: 0.48%
[27]
  viability, T/C: 0.12%
[28]
  viability, T/C: 0.91%
[29]
  viability, T/C: 0.09%
[30]
  viability, T/C: 0.51%
[31]
  viability, T/C: 0.14%
[32]
  viability, T/C: 1.01%
[33]
  viability, T/C: 0.7%
[34]
  viability, T/C: 2.8%
[35]
  viability, T/C: 0.19%
[36]
  viability, T/C: 0.29%

## COC1C=CCC(C)C(C)S(=O)(=O)NC(=O)c2ccc3c(c2)N(CC2CCC21)CC1(CCCc2cc(Cl)ccc21)CO3 (centres undefined) + CN1CCN(c2cc(C(=O)Nc3cc4cc(-c5cnn(C)c5)ccc4cn3)ccn2)CC1
Second compound 0.0316 µM
  IC50: 4970 nM
Second compound 0.1 µM
  IC50: 4750 nM
Second compound 0.316 µM
  IC50: < 31.6 nM
Second compound 1 µM
  IC50: < 31.6 nM
Second compound 3.16 µM
  IC50: < 31.6 nM
Second compound 10 µM
  IC50: < 31.6 nM
[1]
  viability, T/C: 87.2%
[2]
  viability, T/C: 97.5%
[3]
  viability, T/C: 74.6%
[4]
  viability, T/C: 86%
[5]
  viability, T/C: 79.7%
[6]
  viability, T/C: 4.02%
[7]
  viability, T/C: 77.2%
[8]
  viability, T/C: 73.5%
[9]
  viability, T/C: 78.7%
[10]
  viability, T/C: 78.2%
[11]
  viability, T/C: 76%
[12]
  viability, T/C: 2.54%
[13]
  viability, T/C: 24.8%
[14]
  viability, T/C: 29.9%
[15]
  viability, T/C: 30.9%
[16]
  viability, T/C: 26.5%
[17]
  viability, T/C: 29.6%
[18]
  viability, T/C: 1.06%
[19]
  viability, T/C: 0.39%
[20]
  viability, T/C: 0.17%
[21]
  viability, T/C: 0.35%
[22]
  viability, T/C: 0.18%
[23]
  viability, T/C: 0.65%
[24]
  viability, T/C: 0.11%
[25]
  viability, T/C: 0.12%
[26]
  viability, T/C: 0.14%
[27]
  viability, T/C: 1.19%
[28]
  viability, T/C: 0.82%
[29]
  viability, T/C: 0.11%
[30]
  viability, T/C: 0.1%
[31]
  viability, T/C: 0.48%
[32]
  viability, T/C: 0.72%
[33]
  viability, T/C: 0.18%
[34]
  viability, T/C: 1.21%
[35]
  viability, T/C: 0.37%
[36]
  viability, T/C: 0.23%
